The target in the test is T1, ArcD (arginine-ornithine antiporter) (Streptococcus gordonii, UniProt A8AYK8).
T1 construct: native full-length membrane transporter in intact wild-type S. gordonii cells; deletion mutant and complemented strain as controls
Nature of the test: inhibition of [3H]arginine uptake into intact wild-type cells. The test is classed as cell-based. As to conditions: whole cells in PBS, 20 s, 50 μM labelled arginine, unlabelled ornithine at 100-fold excess.

Molecules are shown by their SMILES.

T1 sequence (A8AYK8 entry or part of it): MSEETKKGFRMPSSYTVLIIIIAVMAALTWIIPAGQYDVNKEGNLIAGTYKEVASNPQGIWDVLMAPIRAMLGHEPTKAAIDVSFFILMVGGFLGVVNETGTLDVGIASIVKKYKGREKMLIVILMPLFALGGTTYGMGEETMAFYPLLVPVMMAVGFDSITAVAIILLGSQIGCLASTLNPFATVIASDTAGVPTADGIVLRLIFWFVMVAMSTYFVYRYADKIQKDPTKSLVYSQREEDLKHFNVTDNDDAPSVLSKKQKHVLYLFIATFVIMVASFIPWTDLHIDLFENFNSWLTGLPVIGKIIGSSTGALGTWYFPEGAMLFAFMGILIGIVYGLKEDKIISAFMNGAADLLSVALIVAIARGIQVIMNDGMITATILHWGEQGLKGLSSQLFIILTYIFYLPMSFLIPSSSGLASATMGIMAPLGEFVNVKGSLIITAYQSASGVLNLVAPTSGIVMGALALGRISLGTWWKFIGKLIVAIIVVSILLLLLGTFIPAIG

For `NCCC[C@H](N)C(=O)O` [Ornithine], the “% inhibition at 100-fold excess” value is “Ornithine also had a moderate effect on the inhibition of arginine uptake”.

These data come from article PMC4571851, “Arginine-Ornithine Antiporter ArcD Controls Arginine Metabolism and Interspecies Biofilm Development of Streptococcus gordonii” (The Journal of Biological Chemistry, 2015).
